These results are taken from patent publication US10321682B2, “Pesticidal aryl pyrrole nitrile compound, preparation method for same, uses thereof, agricultural pesticide, and pest control method” (HENAN GOODDAYS BIOLOGY DEVELOPMENT CO., LTD., priority 2016, dated 2019).

Series [1] can be described thus: Toxicity to Japanese carp. As to conditions: in vivo.
Series [2] in a line: Acute percutaneous toxicity in rats. As to conditions: both sexes, rat, in vivo, topical; both female rats and male rats.
The nature of series [3]: Acute oral toxicity in rats. As to conditions: both sexes, rat, in vivo, both female rats and male rats.
The next series deals with rats. As to conditions: cited from earlier work.

A word on the LC50: it is the concentration that kills 50% of the test population. What is called LD50 is the dose at which mortality reaches 50%. A lower LD50 goes with a more toxic substance.

≈ marks a conversion by molar mass, not a printed value. Read-outs that look alike come from different tables or passages of the source. A value given as a limit tells only on which side of the number the result lay.

Regarding `N#Cc1c(Br)c(C(F)(F)F)n(Cc2cnc(Cl)s2)c1-c1ccc(Cl)cc1` [4-bromo-2-(4-chlorophenyl)-1-(2-chloro-5-thiazolylmethyl)-5-trifluoromethylpyrrole-3-carbonitrile], the median lethal concentration (LC50) in series [1] turned out to be 2.5 µg/mL (≈ 5.2 µM). Moreover, the 50% lethal dose (LD50) in series [2] was above 2000 mg/kg; in series [3], above 5000 mg/kg.

With `CCOCn1c(-c2ccc(Cl)cc2)c(C#N)c(Br)c1C(F)(F)F` [Chujin, 4-bromo-2-(4-chlorophenyl)-1-ethoxymethyl-5-trifluoromethylpyrrole-3-carbonitrile], the “acute oral LD50” value with rats (female rats) is given as 459 mg/kg; in the series on rats (male rats), 223 mg/kg.
